The NIST ThermoML archive (doi:10.1016/j.jct.2013.11.036)

Test: mn = molality of the nth substance listed, in mol/kg
Settings: Liquid, Constant-volume piezometry

CCCO [propan-1-ol] + O
Settings | mass density [kg/m3]
383.2 K, 3256 kPa, m1 = 7.407 | 879.4
383.2 K, 6865 kPa, m1 = 7.407 | 881.7
383.2 K, 12651 kPa, m1 = 7.407 | 885.3
393.03 K, 3256 kPa, m1 = 14.38 | 830.8
393.03 K, 6453 kPa, m1 = 14.38 | 833.7
393.03 K, 9885 kPa, m1 = 14.38 | 836.6
393.03 K, 13239 kPa, m1 = 14.38 | 838.9
394.81 K, 3472 kPa, m1 = 2.531 | 911.1
394.81 K, 7845 kPa, m1 = 2.531 | 913.4
394.81 K, 11768 kPa, m1 = 2.531 | 915.6
398.15 K, 5000 kPa, m1 = 0.869 | 932
398.15 K, 5000 kPa, m1 = 2.465 | 912.7
398.15 K, 10000 kPa, m1 = 0.869 | 934.6
398.15 K, 10000 kPa, m1 = 2.465 | 915.5
398.15 K, 20000 kPa, m1 = 0.869 | 939.5
398.15 K, 20000 kPa, m1 = 2.465 | 920.8
398.15 K, 30000 kPa, m1 = 0.869 | 943.9
398.15 K, 30000 kPa, m1 = 2.465 | 925.7
398.15 K, 40000 kPa, m1 = 0.869 | 948
398.15 K, 40000 kPa, m1 = 2.465 | 930.1
410.72 K, 3923 kPa, m1 = 56.35 | 771.4
410.72 K, 10787 kPa, m1 = 56.35 | 780.5
423.15 K, 5000 kPa, m1 = 0.869 | 909.2
423.15 K, 5000 kPa, m1 = 2.465 | 888.1
423.15 K, 10000 kPa, m1 = 0.869 | 912.1
423.15 K, 10000 kPa, m1 = 2.465 | 891.4
423.15 K, 20000 kPa, m1 = 0.869 | 917.6
423.15 K, 20000 kPa, m1 = 2.465 | 897.5
423.15 K, 30000 kPa, m1 = 0.869 | 922.6
423.15 K, 30000 kPa, m1 = 2.465 | 903.1
423.15 K, 40000 kPa, m1 = 0.869 | 927
423.15 K, 40000 kPa, m1 = 2.465 | 908
423.61 K, 3432 kPa, m1 = 14.38 | 797.3
423.61 K, 6453 kPa, m1 = 14.38 | 800.5
423.61 K, 10042 kPa, m1 = 14.38 | 804.1
423.61 K, 12827 kPa, m1 = 14.38 | 806.4
426.33 K, 3668 kPa, m1 = 2.531 | 880.3
426.33 K, 6865 kPa, m1 = 2.531 | 882.1
426.33 K, 10787 kPa, m1 = 2.531 | 884.4
427.06 K, 4001 kPa, m1 = 7.407 | 834.6
427.06 K, 6453 kPa, m1 = 7.407 | 836.9
427.06 K, 10375 kPa, m1 = 7.407 | 839.8
448.15 K, 5000 kPa, m1 = 0.869 | 883
448.15 K, 5000 kPa, m1 = 2.465 | 860.5
448.15 K, 10000 kPa, m1 = 0.869 | 886.4
448.15 K, 10000 kPa, m1 = 2.465 | 864.4
448.15 K, 20000 kPa, m1 = 0.869 | 892.7
448.15 K, 20000 kPa, m1 = 2.465 | 871.5
448.15 K, 30000 kPa, m1 = 0.869 | 898.3
448.15 K, 30000 kPa, m1 = 2.465 | 877.9
448.15 K, 40000 kPa, m1 = 0.869 | 903.2
448.15 K, 40000 kPa, m1 = 2.465 | 883.5
457.85 K, 3589 kPa, m1 = 14.38 | 754.1
457.85 K, 8198 kPa, m1 = 14.38 | 760.4
457.85 K, 13141 kPa, m1 = 14.38 | 766.1
463.81 K, 4805 kPa, m1 = 7.407 | 790.8
463.81 K, 7355 kPa, m1 = 7.407 | 793.5
463.81 K, 10787 kPa, m1 = 7.407 | 796.8
472.74 K, 3668 kPa, m1 = 2.531 | 826.7
472.74 K, 6531 kPa, m1 = 2.531 | 829.7
472.74 K, 10297 kPa, m1 = 2.531 | 832.6
486.26 K, 7512 kPa, m1 = 56.35 | 668.9
486.26 K, 11278 kPa, m1 = 56.35 | 680.2
500.33 K, 4982 kPa, m1 = 2.531 | 790
500.33 K, 7100 kPa, m1 = 2.531 | 792.6
500.33 K, 9316 kPa, m1 = 2.531 | 794.5
501.66 K, 4491 kPa, m1 = 14.38 | 685
501.66 K, 6943 kPa, m1 = 14.38 | 691.7
501.66 K, 10415 kPa, m1 = 14.38 | 699.7
501.66 K, 14298 kPa, m1 = 14.38 | 706.5
504.03 K, 4805 kPa, m1 = 7.407 | 730.7
504.03 K, 7669 kPa, m1 = 7.407 | 735.5
504.03 K, 9807 kPa, m1 = 7.407 | 739.6
504.03 K, 10866 kPa, m1 = 7.407 | 741.9
536.99 K, 10160 kPa, m1 = 56.35 | 558.4
536.99 K, 11140 kPa, m1 = 56.35 | 566.4
536.99 K, 11591 kPa, m1 = 56.35 | 573.2
537.32 K, 9885 kPa, m1 = 14.38 | 619.3
537.32 K, 10611 kPa, m1 = 14.38 | 628.3
537.32 K, 14298 kPa, m1 = 14.38 | 642.1
538.96 K, 7433 kPa, m1 = 2.531 | 728.6
538.96 K, 8649 kPa, m1 = 2.531 | 731.3
538.96 K, 11023 kPa, m1 = 2.531 | 736.1
543.97 K, 7335 kPa, m1 = 7.407 | 653.7
543.97 K, 10532 kPa, m1 = 7.407 | 666.5
543.97 K, 12749 kPa, m1 = 7.407 | 673.5
574.64 K, 11886 kPa, m1 = 56.35 | 322.1
574.64 K, 13082 kPa, m1 = 56.35 | 409.5
574.64 K, 14004 kPa, m1 = 56.35 | 441.1
574.64 K, 14509 kPa, m1 = 56.35 | 456.5
574.64 K, 15043 kPa, m1 = 56.35 | 468
575.95 K, 11768 kPa, m1 = 14.38 | 437.4
575.95 K, 11886 kPa, m1 = 14.38 | 475.9
575.95 K, 13317 kPa, m1 = 14.38 | 509.3
575.95 K, 13729 kPa, m1 = 14.38 | 521.1
577.86 K, 11717 kPa, m1 = 2.531 | 643.6
577.86 K, 11768 kPa, m1 = 2.531 | 652.5
577.86 K, 12160 kPa, m1 = 2.531 | 656.7
582.08 K, 12239 kPa, m1 = 7.407 | 540
582.08 K, 12866 kPa, m1 = 7.407 | 557.8
582.08 K, 13670 kPa, m1 = 7.407 | 567.6
582.08 K, 14377 kPa, m1 = 7.407 | 576.7
